{"source": "paper PMC6332508", "about": "“A Promising PET Tracer for Imaging of α7 Nicotinic Acetylcholine Receptors in the Brain: Design, Synthesis, and in Vivo Evaluation of a Dibenzothiophene-Based Radioligand” (Molecules, 2015)", "system": "α7 nAChR", "test": "Dynamic PET studies in piglets with kinetic modelling (2TCM)", "format": "in vivo", "design": "clearance rate constant k2, mean: unit not given here", "conditions": "for VND / BPND / Rate Constant K1 / Rate Constant k2 / Rate Constant k3 / Rate Constant k4: piglet brain, 240 min scan data, n = 3; for total volume of distribution VT: piglet, K1/k2(1 + k3/k4)", "experimental": "One-tissue and two-tissue compartment models (1TCM and 2TCM) were evaluated for mathematical description of [^18F]10a time-activity curves (TACs) in pig brain regions (Figure 3) using metabolite-corrected arterial plasma input functions. The 2TCM was identified as the more appropriate model based on its smaller Akaike information criterion (AIC) value. The four rate constants K1, k2, k3, and k4 were fitted and the non-displaceable volume of distribution (VND = K1/k2) and the binding potential (BPND = k3/k4) as defined by Innis et al. were calculated for each region of interest (Table 3 and Table 4).\nSix female animals were used in this study with anesthesia and surgery performed as described previously. In brief, the animals received initially a premedication with midazolam (1 mg∙kg^−1 i.m.) followed by induction of anesthesia with 3% isoflurane in 70% N2O/30% O2. All incision sites were infiltrated with 1% lidocaine, and the anesthesia was maintained with 1.5% isoflurane throughout the surgical procedure. A central venous catheter was introduced through the left external jugular vein and used for the administration of the radiotracer and drugs, and for volume substitution with heparinized (50 IE∙mL^−1) lactated Ringer’s solution (2 mL∙kg^−1∙h^−1). An endotracheal tube was inserted by tracheotomy for artificial ventilation (Servo Ventilator 900C, Siemens-Elema, Solna, Sweden) after immobilization with pancuronium bromide (0.2 mg∙kg^−1∙h^−1). The artificial ventilation was adjusted to obtain normoxia and normocapnia (Radiometer ABL 500, Copenhagen, Denmark). Polyurethane catheters (i.d., 0.5 mm) were advanced through the left and the right femoral arteries into the abdominal aorta to withdraw arterial blood samples for regular monitoring of blood gases and for radiotracer input function measurements and metabolite analyses. The body temperature was monitored by a rectal temperature probe and maintained at ~38 °C by a heating pad. After the surgical procedure has been completed, anesthesia was maintained with 0.5% isoflurane in 70% N2O/30% O2, and the animals were allowed to stabilize for 1 h before imaging procedure.\nPET imaging was performed according to the protocol described recently. In brief, a clinical tomograph (ECAT Exact HR+; Siemens Healthcare GmbH, Erlangen, Germany) was used with animals lying prone with the head placed in a custom-made head holder. For attenuation and scatter correction, transmission scans were acquired using three rotating ^68Ge rod sources. The radiotracer was injected as an intravenous (i.v.) bolus (10 mL saline with 340–494 MBq [^18F]10a) by a syringe pump within 2 min followed by flushing with 10 mL heparinized saline (50 IE∙mL^−1). PET scanning started at the time of injection (0 min) and dynamic emission data were acquired for a total of 240 min. Three animals were investigated under baseline conditions, and another three under blocking conditions with administration of 3 mg∙kg^−1 i.v. of the α7 nAChR partial agonist NS6740 at 3 min before radiotracer injection followed by a continuous infusion throughout the scan (1 mg∙kg^−1∙h^−1).\nArterial blood was sampled using a peristaltic pump during the first 20 min of the scan followed by manual sampling at 25, 30, 40, 50, 60, 90, 120, 150, 180, 210, and 240 min after injection. Plasma was obtained by centrifugation (13,000 rpm, 2 min at 21 °C) and total radioactivity concentration was measured using a gamma-counter (1470 Wizard; PerkinElmer, Shelton, CT, USA) cross-calibrated to the PET scanner. In addition, arterial whole blood was sampled manually at 4, 16, 30, 60, and 120 min p.i. and plasma obtained for metabolite analyses to determine the fraction of non-metabolized [^18F]10a.\nThe plasma input function was corrected for the presence of radioactive metabolites by determination of the parent fraction as described previously. […]", "key": {"[1]": {"conditions": "Occipital Cortex, blocking (NS6740)"}, "[2]": {"conditions": "Parietal Cortex, blocking (NS6740)"}}, "note": "“And” between values parts separate entries of the source, which are not always exact repeats. Equal entries are not always repeated.", "data": [{"compound": "O=S1(=O)c2ccc([18F])cc2-c2ccc(N3CCN4CCC3CC4)cc21", "note": "[[^18F]10a]", "values": [{"measurement": "VND", "setting": "Occipital Cortex, baseline", "result": "4.07 ± 2.23"}, {"measurement": "BPND", "setting": "[1]", "result": "0.95 ± 1.03"}, {"measurement": "Rate Constant K1", "setting": "[1]", "result": "0.668 ± 0.103", "unit": "mL·cm^−3·min^−1"}, {"measurement": "Rate Constant k2", "setting": "[1]", "result": "0.064 ± 0.019", "unit": "min⁻¹"}, {"measurement": "Rate Constant k3", "setting": "[1]", "result": "0.022 ± 0.032", "unit": "min⁻¹"}, {"measurement": "Rate Constant k4", "setting": "[1]", "result": "0.013 ± 0.023", "unit": "min⁻¹"}, {"measurement": "VND", "setting": "[1]", "result": "11.36 ± 4.41"}, {"measurement": "BPND", "setting": "Parietal Cortex, baseline", "result": "3.47 ± 1.65"}, {"measurement": "Rate Constant K1", "setting": "Parietal Cortex, baseline", "result": "0.399 ± 0.038", "unit": "mL·cm^−3·min^−1"}, {"measurement": "Rate Constant k2", "setting": "Parietal Cortex, baseline", "result": "0.140 ± 0.089", "unit": "min⁻¹"}, {"measurement": "Rate Constant k3", "setting": "Parietal Cortex, baseline", "result": "0.126 ± 0.135", "unit": "min⁻¹"}, {"measurement": "Rate Constant k4", "setting": "Parietal Cortex, baseline", "result": "0.031 ± 0.021", "unit": "min⁻¹"}, {"measurement": "VND", "setting": "Parietal Cortex, baseline", "result": "3.88 ± 2.49"}, {"measurement": "BPND", "setting": "[2]", "result": "0.82 ± 0.88"}, {"measurement": "Rate Constant K1", "setting": "[2]", "result": "0.659 ± 0.120", "unit": "mL·cm^−3·min^−1"}, {"measurement": "Rate Constant k2", "setting": "[2]", "result": "0.055 ± 0.013", "unit": "min⁻¹"}, {"measurement": "Rate Constant k3", "setting": "[2]", "result": "0.015 ± 0.020", "unit": "min⁻¹"}, {"measurement": "Rate Constant k4", "setting": "[2]", "result": "0.011 ± 0.021", "unit": "min⁻¹"}, {"measurement": "VND", "setting": "[2]", "result": "12.58 ± 4.52"}, {"measurement": "BPND", "setting": "Pons, baseline", "result": "2.76 ± 0.81"}, {"measurement": "Rate Constant K1", "setting": "Pons, baseline", "result": "0.440 ± 0.045", "unit": "mL·cm^−3·min^−1"}, {"measurement": "Rate Constant k2", "setting": "Pons, baseline", "result": "0.149 ± 0.059", "unit": "min⁻¹"}, {"measurement": "Rate Constant k3", "setting": "Pons, baseline", "result": "0.068 ± 0.042", "unit": "min⁻¹"}, {"measurement": "Rate Constant k4", "setting": "Pons, baseline", "result": "0.026 ± 0.019", "unit": "min⁻¹"}, {"measurement": "VND", "setting": "Pons, baseline", "result": "3.32 ± 1.40"}, {"measurement": "BPND", "setting": "Pons, blocking (NS6740)", "result": "0.76 ± 1.16"}, {"measurement": "Rate Constant K1", "setting": "Pons, blocking (NS6740)", "result": "0.670 ± 0.092", "unit": "mL·cm^−3·min^−1"}, {"measurement": "Rate Constant k2", "setting": "Pons, blocking (NS6740)", "result": "0.084 ± 0.030", "unit": "min⁻¹"}, {"measurement": "Rate Constant k3", "setting": "Pons, blocking (NS6740)", "result": "0.019 ± 0.023", "unit": "min⁻¹"}, {"measurement": "Rate Constant k4", "setting": "Pons, blocking (NS6740)", "result": "0.012 ± 0.016", "unit": "min⁻¹"}, {"measurement": "VND", "setting": "Pons, blocking (NS6740)", "result": "8.93 ± 3.96"}, {"measurement": "BPND", "setting": "Striatum, baseline", "result": "3.98 ± 1.40"}, {"measurement": "Rate Constant K1", "setting": "Striatum, baseline", "result": "0.382 ± 0.028", "unit": "mL·cm^−3·min^−1"}, {"measurement": "Rate Constant k2", "setting": "Striatum, baseline", "result": "0.144 ± 0.079", "unit": "min⁻¹"}, {"measurement": "Rate Constant k3", "setting": "Striatum, baseline", "result": "0.114 ± 0.093", "unit": "min⁻¹"}, {"measurement": "Rate Constant k4", "setting": "Striatum, baseline", "result": "0.027 ± 0.014", "unit": "min⁻¹"}, {"measurement": "VND", "setting": "Striatum, baseline", "result": "3.35 ± 1.81"}, {"measurement": "BPND", "setting": "Striatum, blocking (NS6740)", "result": "0.75 ± 1.29"}, {"measurement": "Rate Constant K1", "setting": "Striatum, blocking (NS6740)", "result": "0.624 ± 0.143", "unit": "mL·cm^−3·min^−1"}, {"measurement": "Rate Constant k2", "setting": "Striatum, blocking (NS6740)", "result": "0.057 ± 0.015", "unit": "min⁻¹"}, {"measurement": "Rate Constant k3", "setting": "Striatum, blocking (NS6740)", "result": "0.020 ± 0.025", "unit": "min⁻¹"}, {"measurement": "Rate Constant k4", "setting": "Striatum, blocking (NS6740)", "result": "0.011 ± 0.017", "unit": "min⁻¹"}, {"measurement": "VND", "setting": "Striatum, blocking (NS6740)", "result": "11.78 ± 4.91"}, {"measurement": "BPND", "setting": "Thalamus, baseline", "result": "3.51 ± 1.13"}, {"measurement": "Rate Constant K1", "setting": "Thalamus, baseline", "result": "0.448 ± 0.027", "unit": "mL·cm^−3·min^−1"}, {"measurement": "Rate Constant k2", "setting": "Thalamus, baseline", "result": "0.150 ± 0.071", "unit": "min⁻¹"}, {"measurement": "Rate Constant k3", "setting": "Thalamus, baseline", "result": "0.111 ± 0.085", "unit": "min⁻¹"}, {"measurement": "Rate Constant k4", "setting": "Thalamus, baseline", "result": "0.030 ± 0.018", "unit": "min⁻¹"}, {"measurement": "VND", "setting": "Thalamus, baseline", "result": "3.67 ± 2.10"}, {"measurement": "BPND", "setting": "Thalamus, blocking (NS6740)", "result": "0.88 ± 1.00"}, {"measurement": "Rate Constant K1", "setting": "Thalamus, blocking (NS6740)", "result": "0.762 ± 0.129", "unit": "mL·cm^−3·min^−1"}, {"measurement": "Rate Constant k2", "setting": "Thalamus, blocking (NS6740)", "result": "0.070 ± 0.025", "unit": "min⁻¹"}, {"measurement": "Rate Constant k3", "setting": "Thalamus, blocking (NS6740)", "result": "0.023 ± 0.031", "unit": "min⁻¹"}, {"measurement": "Rate Constant k4", "setting": "Thalamus, blocking (NS6740)", "result": "0.012 ± 0.021", "unit": "min⁻¹"}, {"measurement": "VND", "setting": "Thalamus, blocking (NS6740)", "result": "12.09 ± 5.31"}, {"measurement": "BPND", "setting": "Whole, baseline", "result": "3.31 ± 1.02"}, {"measurement": "Rate Constant K1", "setting": "Whole, baseline", "result": "0.362 mL·cm^−3·min^−1 and 0.362 ± 0.038 mL·cm^−3·min^−1"}, {"measurement": "Rate Constant k2", "setting": "Whole, baseline", "result": "0.131 ± 0.062", "unit": "min⁻¹"}, {"measurement": "Rate Constant k3", "setting": "Whole, baseline", "result": "0.093 ± 0.074", "unit": "min⁻¹"}, {"measurement": "Rate Constant k4", "setting": "Whole, baseline", "result": "0.027 ± 0.018", "unit": "min⁻¹"}, {"measurement": "VND", "setting": "Whole, baseline", "result": "3.32 ± 1.74"}, {"measurement": "BPND", "setting": "Whole, blocking (NS6740)", "result": "0.84 ± 1.07"}, {"measurement": "Rate Constant K1", "setting": "Whole, blocking (NS6740)", "result": "0.598 ± 0.108", "unit": "mL·cm^−3·min^−1"}, {"measurement": "Rate Constant k2", "setting": "Whole, blocking (NS6740)", "result": "0.062 ± 0.015", "unit": "min⁻¹"}, {"measurement": "Rate Constant k3", "setting": "Whole, blocking (NS6740)", "result": "0.018 ± 0.022", "unit": "min⁻¹"}, {"measurement": "Rate Constant k4", "setting": "Whole, blocking (NS6740)", "result": "0.011 ± 0.018", "unit": "min⁻¹"}, {"measurement": "VND", "setting": "Whole, blocking (NS6740)", "result": "10.27 ± 3.94"}, {"measurement": "total volume of distribution VT", "setting": "cerebellum, baseline", "result": 13, "unit": "mL∙cm^−3"}, {"measurement": "total volume of distribution VT", "setting": "thalamus, baseline", "result": 17, "unit": "mL∙cm^−3"}, {"measurement": "clearance rate constant k2, mean", "setting": "whole brain, baseline", "result": 0.131}]}]}
